Measured values as given in ChEMBL document CHEMBL1201862, “PubChem BioAssay data set” (2004).
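Interpolation was linear, between the two tested concentrations surrounding the appropriate level; five concentrations were tested over 48 hours in 96-well plates. GI50 is the concentration that inhibits growth by half.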 Active and inactive are the calls of the source. No stated cut-off is given here; in the data, active = GI50 up to about 1.1 µM and inactive = higher.

Legend:
Assay in all cases: growth of human tumour cells (NCI), 48 h
K562 = test system: K562
SW-620 = test system: SW-620
HCT-116 = test system: HCT-116
UACC-62 = test system: UACC-62
NCI-H460 = test system: NCI-H460
BT-549 = test system: BT-549
TK-10 = test system: TK-10
MCF7 = test system: MCF7
SK-MEL-5 = test system: SK-MEL-5
CAKI-1 = test system: CAKI-1
MDA-MB-231 = test system: MDA-MB-231
EKVX = test system: EKVX
CCRF-CEM = test system: CCRF-CEM
UACC-257 = test system: UACC-257
OVCAR-4 = test system: OVCAR-4
T47D = test system: T47D
NCI-H522 = test system: NCI-H522
M14 = test system: M14
MDA-N = test system: MDA-N
PC-3 = test system: PC-3

SMILES	GI50 (K562)	GI50 (SW-620)	GI50 (HCT-116)	GI50 (UACC-62)	GI50 (NCI-H460)	GI50 (BT-549)	GI50 (TK-10)	GI50 (MCF7)	GI50 (SK-MEL-5)	GI50 (CAKI-1)	GI50 (MDA-MB-231)	GI50 (EKVX)	GI50 (CCRF-CEM)	GI50 (UACC-257)	GI50 (OVCAR-4)	GI50 (T47D)	GI50 (NCI-H522)	GI50 (M14)	GI50 (MDA-N)	GI50 (PC-3)
COc1cc(C2SCC(=O)N2c2ccc(NC(=O)c3ccc(N4C(=O)CSC4c4cc(OC)c(OC)c(OC)c4)cc3)cc2)cc(OC)c1OC (stereo not given)	37.9 µM (inactive)	36.9 µM (inactive)	35.1 µM (inactive)	24.9 µM (inactive)	> 100 µM (inactive)	56 µM (inactive)	> 100 µM (inactive)	43.3 µM (inactive)	46.3 µM (inactive)	> 100 µM (inactive)	> 100 µM (inactive)	57 µM (inactive)	45.5 µM (inactive)	60.5 µM (inactive)	33 µM (inactive)	19.8 µM (inactive)	40.2 µM (inactive)	73.1 µM (inactive)	23.1 µM (inactive)	58.3 µM (inactive)
O=P1(O)c2ccccc2Nc2cc(C(F)(F)F)ccc21	> 100 µM (inactive)	> 100 µM (inactive)	> 100 µM (inactive)	> 100 µM (inactive)	> 100 µM (inactive)	> 100 µM (inactive)	> 100 µM (inactive)	> 100 µM (inactive)	> 100 µM (inactive)	> 100 µM (inactive)	> 100 µM (inactive)	> 100 µM (inactive)	> 100 µM (inactive)	> 100 µM (inactive)	> 100 µM (inactive)	> 100 µM (inactive)	> 100 µM (inactive)	> 100 µM (inactive)	> 100 µM (inactive)	> 100 µM (inactive)
O=C1CCC2(CC1)Cc1ccccc1C2O (stereo not given)	> 100 µM (inactive)	> 100 µM (inactive)	> 100 µM (inactive)	> 100 µM (inactive)	> 100 µM (inactive)	> 100 µM (inactive)	> 100 µM (inactive)	> 100 µM (inactive)	> 100 µM (inactive)	> 100 µM (inactive)	> 100 µM (inactive)	> 100 µM (inactive)	> 100 µM (inactive)	> 100 µM (inactive)	> 100 µM (inactive)	> 100 µM (inactive)	> 100 µM (inactive)	> 100 µM (inactive)	> 100 µM (inactive)	> 100 µM (inactive)
c1ccc(/C(=N\Nc2nc3ccccc3[nH]2)c2ccccn2)cc1	0.222 µM (active)	0.204 µM (active)	0.0362 µM (active)	0.82 µM (active)	0.617 µM (active)	1.19 µM (inactive)	0.314 µM (active)	0.148 µM (active)	0.427 µM (active)	0.425 µM (active)	0.415 µM (active)	0.47 µM (active)	0.0959 µM (active)	0.298 µM (active)	0.208 µM (active)	0.136 µM (active)	0.25 µM (active)	0.361 µM (active)	0.762 µM (active)	0.182 µM (active)
C=C1C(=O)OC2C1CCC(C)C1C=CC(=O)C12C (stereo not given)	2.48 µM (inactive)	1.8 µM (inactive)	1.74 µM (inactive)	1.79 µM (inactive)	4.84 µM (inactive)	1.63 µM (inactive)	3.05 µM (inactive)	3.92 µM (inactive)	3.33 µM (inactive)	2.97 µM (inactive)	2.19 µM (inactive)	8.79 µM (inactive)	1.34 µM (inactive)	1.97 µM (inactive)	6.76 µM (inactive)	2.45 µM (inactive)	0.891 µM (active)	1.95 µM (inactive)	1.77 µM (inactive)	4.49 µM (inactive)
